Data: paper PMC10568461, “A pilot study of cerebral metabolism and serotonin 5-HT2A receptor occupancy in rats treated with the psychedelic tryptamine DMT in conjunction with the MAO inhibitor harmine” (Frontiers in Pharmacology, 2023)

Columns and labels:
[1] = target: T1, serotonin 5-HT2A receptors (Rattus norvegicus, UniProt P14842); assay: Ex vivo occupancy at frontal cortex 5-HT2A receptors with [^3H]ketanserin (experiment 1); assay type: in vivo
T1 construct: from tissue; host or cells: rat frontal cortex (living rat brain, measured ex vivo after in vivo radioligand injection)
T1 sequence (P14842 whole entry): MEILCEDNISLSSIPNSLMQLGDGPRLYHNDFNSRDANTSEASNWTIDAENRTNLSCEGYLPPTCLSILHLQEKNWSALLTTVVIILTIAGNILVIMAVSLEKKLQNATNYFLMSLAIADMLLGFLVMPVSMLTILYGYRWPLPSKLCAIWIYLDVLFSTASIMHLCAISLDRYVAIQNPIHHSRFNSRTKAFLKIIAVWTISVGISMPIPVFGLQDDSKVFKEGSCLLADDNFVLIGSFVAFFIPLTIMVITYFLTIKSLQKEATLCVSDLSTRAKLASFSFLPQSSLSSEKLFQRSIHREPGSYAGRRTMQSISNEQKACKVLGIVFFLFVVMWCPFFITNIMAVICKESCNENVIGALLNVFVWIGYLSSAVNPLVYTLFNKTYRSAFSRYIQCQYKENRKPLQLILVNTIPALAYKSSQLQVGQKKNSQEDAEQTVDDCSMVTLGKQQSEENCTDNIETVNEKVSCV
Procedure: Groups of (n = 6) rats received either saline, harmine (1 mg/kg), DMT (1 mg/kg), or harmine + DMT (1 mg/kg each) as subcutaneous injections, as indicated in Figure 1. Approximately 5 minutes later, the animals were lightly anesthetized using (2% isoflurane in pure oxygen) and received [^3H]ketanserin (300 kBq; 740 MBq/µmol) as a bolus injection in 0.2 mL saline via a tail vein. […] At the conclusion of the PET recording, rats were sacrificed while still anesthetized, thus 95 min after drug administration. Terminal samples of cerebellum (non-binding reference tissue) and frontal cortex were transferred to preweighed 7 mL liquid scintillation vials, reweighed, and added with 0.9 mL of aqueous based solubilizer (Solvable, Perkin Elmer) for dissolution during 48 h at room temperature. Next, 7 mL of liquid scintillation counting cocktail (Ultima Gold™ XR, Perkin Elmer) was added to each sample, and the content of tritium (i.e., [^3H]ketanserin, cpm/mg) was measured by liquid scintillation counting (TRI-CARB, Perkin Elmer). We calculated the occupancy by DMT at frontal cortex 5-HT2A receptors for the three treatment groups relative to the specific binding ratio ([cortex-cerebellum]/cerebellum) for the control group.

[2] = target: T1, serotonin 5-HT2A receptors; assay: Ex vivo occupancy at frontal cortex 5-HT2A receptors with [^18F]MH.MZ (experiment 2); assay type: in vivo; conditions: Experiment 2, [^18F]MH.MZ
Procedure: Animals were lightly sedated using 2% isoflurane in pure oxygen at 20 min post DMT injection, whereupon they received a 0.2 mL intravenous injection of [^18F]MH.MZ diluted in saline to a radiochemical concentration of approximately 20 MBq/mL. Rats then returned to their home cage with withdrawal of anesthesia. After 45 min, rats were sacrificed by decapitation, and the brains dissected into cerebellum and frontal cortex samples for radioactivity measurement and chemical analysis, thus 65 min after harmine + DMT. The gamma-activity in weighed samples of cerebellum and frontal cortex regions was counted with a Packard Cobra gamma counter (GMI, Ramsey, Minnesota, US), as previously reported ([Bærentzen et al., 2019]). As with [^3H]ketanserin, the occupancy at [^18F]MH.MZ binding sites in frontal cortex was calculated from the specific binding ratio (cortex-cerebellum)/cerebellum) measured in the saline control and treatment groups.

brain glucose metabolism = assay: [^18F]FDG-PET of cerebral glucose metabolism (experiment 1); assay type: in vivo, rat; conditions: for [^18F]FDG-PET SUV normalized to whole-brain uptake (SUVglob): 1 mg/kg s.c.; for [^18F]FDG-PET SUV normalized to whole-brain uptake (SUVglob) / [^18F]FDG-PET glucose normalized SUV (SUVgluc): mean (SD)
Procedure: The dynamic PET recordings were histogrammed into six frames of 5 minutes each, and reconstructed with attenuation, decay, and scatter correction using the OSEM3D/SP-MAP algorithm (2 x OSEM iterations and 18 x MAP iterations) with a matrix size of 128 × 128 pixels, resulting in a final target resolution of 0.8 mm/pixel. Pre-processing of PET scans was performed using PMOD v4.2 (PMOD Technologies LLC, Zurich, Switzerland). The [^18F]FDG images were averaged across the six frames and then converted into standardized uptake values (SUV), whereupon the image was cropped to the head of the animal and automatically co-registered to a standard [^18F]FDG-PET template. We used Schiffer’s atlas ([Schiffer et al., 2006]) for parcellation of bilateral brain regions within the cortico-striato-thalamo-cortical (CSTC) circuit, i.e. bilateral nucleus accumbens (NAc), medial prefrontal cortex (mPFC), orbitofrontal cortex (OFC), hippocampus, striatum, thalamus, visual cortex, cerebellum as a comparator region, and whole brain. We selected these regions from the CSTC circuit based on a conceptual model holding that the thalamus acts as a filter/gatekeeper of sensory information, broadcasting to cortical regions that subserve conscious experience ([Wang et al., 2006]; [McAlonan et al., 2008]). Perturbation of this CSTC circuit is implicated in the action of psychedelic compounds ([Geyer and Vollenweider, 2008]; [Preller et al., 2019]). We scaled individual regional SUV results to the mean blood glucose levels measured during the recording session (SUVgluc) and to the global [^18F]FDG uptake (SUVglob).

rats = assay: Behavioural observations in treated rats; assay type: in vivo, rat; conditions: in some DMT- (and harmine-) treated rats; not systematically assessed
[3] = target: serotonin 5-HT2A receptors; parameters: method as in ref Lyon et al., 1988; Pierce and Peroutka, 1989; McKenna et al., 1990; Keiser et al., 2009; Ray, 2010; conditions: ref Lyon et al., 1988, Pierce and Peroutka, 1989, McKenna et al., 1990, Keiser et al., 2009, Ray, 2010, cited from earlier work
serotonin 5-HT1A = test system: serotonin 5-HT1A; parameters: method as in ref Lyon et al., 1988; Pierce and Peroutka, 1989; McKenna et al., 1990; Keiser et al., 2009; Ray, 2010; conditions: ref Lyon et al., 1988; Pierce and Peroutka, 1989; McKenna et al., 1990; Keiser et al., 2009; Ray, 2010; cited from earlier work
5-HT2C receptors = target: 5-HT2C receptors; parameters: method as in ref Lyon et al., 1988; Pierce and Peroutka, 1989; McKenna et al., 1990; Keiser et al., 2009; Ray, 2010; conditions: ref Lyon et al., 1988; Pierce and Peroutka, 1989; McKenna et al., 1990; Keiser et al., 2009; Ray, 2010; cited from earlier work
brain 5-HT2A receptors = conditions: calculated; humans, oral DMT and harmine; ref Koeck, 2015; cited from earlier work
[4] = Brain concentrations of harmine, DMT and metabolites by UHPLC-MS after s.c. harmine and/or DMT; conditions: for concentration at 95 min / concentration at 65 min: rat, subcutaneous
Procedure: Groups of (n = 6) rats received either saline, harmine (1 mg/kg), DMT (1 mg/kg), or harmine + DMT (1 mg/kg each) as subcutaneous injections, as indicated in Figure 1.
After 45 min, rats were sacrificed by decapitation, and the brains dissected into cerebellum and frontal cortex samples for radioactivity measurement and chemical analysis, thus 65 min after harmine + DMT.

SMILES: CN(C)CCc1c[nH]c2ccccc12 [DMT, N,N-dimethyltryptamine]
- [^3H]ketanserin specific binding ratio in frontal cortex ([1]; Experiment 1, 1 mg/kg each s.c., 95 min after administration, (cortex-cerebellum)/cerebellum): 2.15 ± 0.39
- Occupancy at 5-HT2A sites ex vivo ([1]; Experiment 1, [^3H]ketanserin): unable to detect any such occupancy
- Occupancy at 5-HT2A sites ex vivo [2]: unable to detect any such occupancy
- Qualitative effect on brain [^18F]FDG uptake (SUVglob maps) (brain glucose metabolism; 1 mg/kg, separately or in combination): no conspicuous effects
- Trend towards relative increase in SUVglob in hippocampus and thalamus (brain glucose metabolism; Experiment 1, 1 mg/kg): ~5%
- [^18F]FDG-PET SUV normalized to whole-brain uptake (SUVglob) (brain glucose metabolism; NAc): 6.2 (0.36) SUV
- [^18F]FDG-PET glucose normalized SUV (SUVgluc) (brain glucose metabolism; NAc, 1 mg/kg): 6.48 (0.93) SUV
- [^18F]FDG-PET SUV normalized to whole-brain uptake (SUVglob) (brain glucose metabolism; OFC): 6.52 (0.15) SUV
- [^18F]FDG-PET glucose normalized SUV (SUVgluc) (brain glucose metabolism; OFC, 1 mg/kg): 6.82 (0.84) SUV
- [^18F]FDG-PET SUV normalized to whole-brain uptake (SUVglob) (brain glucose metabolism; cerebellum): 4.56 (0.23) SUV
- [^18F]FDG-PET glucose normalized SUV (SUVgluc) (brain glucose metabolism; cerebellum, 1 mg/kg): 4.76 (0.64) SUV
- [^18F]FDG-PET SUV normalized to whole-brain uptake (SUVglob) (brain glucose metabolism; hippocampus): 4.95 (0.21) SUV
- [^18F]FDG-PET glucose normalized SUV (SUVgluc) (brain glucose metabolism; hippocampus, 1 mg/kg): 5.2 (0.85) SUV
- [^18F]FDG-PET SUV normalized to whole-brain uptake (SUVglob) (brain glucose metabolism; mPFC): 6.95 (0.34) SUV
- [^18F]FDG-PET glucose normalized SUV (SUVgluc) (brain glucose metabolism; mPFC, 1 mg/kg): 7.3 (1.24) SUV
- [^18F]FDG-PET SUV normalized to whole-brain uptake (SUVglob) (brain glucose metabolism; striatum): 6.91 (0.24) SUV
- [^18F]FDG-PET glucose normalized SUV (SUVgluc) (brain glucose metabolism; striatum, 1 mg/kg): 7.24 (1.07) SUV
- [^18F]FDG-PET SUV normalized to whole-brain uptake (SUVglob) (brain glucose metabolism; thalamus): 6.33 (0.1) SUV
- [^18F]FDG-PET glucose normalized SUV (SUVgluc) (brain glucose metabolism; thalamus, 1 mg/kg): 6.62 (0.86) SUV
- [^18F]FDG-PET SUV normalized to whole-brain uptake (SUVglob) (brain glucose metabolism; visual cortex): 6.27 (0.13) SUV
- [^18F]FDG-PET glucose normalized SUV (SUVgluc) (brain glucose metabolism; visual cortex, 1 mg/kg): 6.57 (0.99) SUV
- [^18F]FDG-PET glucose normalized SUV (SUVgluc) (brain glucose metabolism; whole brain, 1 mg/kg): 5.8 (0.81) SUV
- Head twitch response (rats): observed the characteristic dose-dependent head twitch response
- IC50 ([3]; read-out: IC50 at 5-HT2A receptors in vitro): 75 to 360 nM
- Ki ([3]; read-out: Ki at 5-HT2A receptors in vitro): 127 to 1200 nM
- IC50 (serotonin 5-HT1A): 170 nM
- Ki (serotonin 5-HT1A): 183 nM
- IC50 (5-HT2C receptors): 360 nM
- Ki (5-HT2C receptors): 360 to 2630 nM
- Time of peak DMT occupancy post-administration (brain 5-HT2A receptors): 0.5 to 1.5 h
- Percentage of total molar concentration of DMT and metabolites ([4]; Exp 1, group DMT, average of regions): 2.3%
- Percentage of total molar concentration of DMT and metabolites ([4]; Exp 1, group DMT, cerebellum): 2.0%
- Percentage of total molar concentration of DMT and metabolites ([4]; Exp 1, group DMT, front cort): 2.6%
- Percentage of total molar concentration of DMT and metabolites ([4]; Exp 1, group Har + DMT, average of regions): 33.9%
- Percentage of total molar concentration of DMT and metabolites ([4]; Exp 1, group Har + DMT, cerebellum): 32.9%
- Percentage of total molar concentration of DMT and metabolites ([4]; Exp 1, group Har + DMT, front cort): 34.7%
- Percentage of total molar concentration of DMT and metabolites ([4]; Exp 2, group Har + DMT, average of regions): 73.3%
- Percentage of total molar concentration of DMT and metabolites ([4]; Exp 2, group Har + DMT, cerebellum): 71.1%
- Percentage of total molar concentration of DMT and metabolites ([4]; Exp 2, group Har + DMT, front cort): 74.9%
- DMT detectable in brain ([4]; Experiment 1, after DMT alone (1 mg/kg)): Only traces
- Brain concentration ([4]; Experiment 1, cerebellum, group Har + DMT (1 mg/kg each s.c.), 95 min, mean (SD)): 105.1 (89.2) ng/g
- Brain concentration ([4]; Experiment 1, frontal cortex, group Har + DMT (1 mg/kg each s.c.), 95 min, mean (SD)): 149.5 (123.2) ng/g
- DMT/3-IAA ratio in brain ([4]; Experiment 1, harmine + DMT 1 mg/kg each): approximately 0.53
- Brain concentration ([4]; Experiment 2, cerebellum, group Har + DMT (3 mg/kg each s.c.), 65 min, mean (SD)): 1472.7 (369.2) ng/g
- Brain concentration ([4]; Experiment 2, frontal cortex, group Har + DMT (3 mg/kg each s.c.), 65 min, mean (SD)): 2122.7 (434.2) ng/g
- DMT/3-IAA ratio in brain ([4]; Experiment 2, harmine + DMT 3 mg/kg each): ~2.83
- Brain concentration after 3 mg/kg harmine + DMT relative to the lower harmine + DMT dose ([4]; Experiment 2 versus experiment 1): 14 fold
- Higher DMT concentration in frontal cortex compared to cerebellum ([4]; Experiments 1 and 2, harmine + DMT): 50%
- concentration at 95 min ([4]; brain (average of frontal cortex and cerebellum), 1 mg/kg, Molar concentration, Exp 1, group DMT, average of regions): 61.5 nM
- concentration at 95 min ([4]; brain (average of frontal cortex and cerebellum), Molar concentration, Exp 1, group Har + DMT, average of regions): 676 nM
- concentration at 65 min ([4]; brain (average of frontal cortex and cerebellum), Molar concentration, Exp 2, group Har + DMT, average of regions): 9550 nM
- concentration at 95 min ([4]; cerebellum, 1 mg/kg, Brain concentration, Experiment 1, cerebellum, group DMT (1 mg/kg s.c.), 95 min, mean (SD)): 8.7 ng/g
- concentration at 95 min ([4]; cerebellum, 1 mg/kg, Molar concentration, Exp 1, group DMT, cerebellum): 46 nM
- concentration at 95 min ([4]; cerebellum, Brain concentration, Experiment 1, cerebellum, after harmine + DMT (1 mg/kg each)): 600 nM
- concentration at 95 min ([4]; cerebellum, Brain concentration, Experiment 1, cerebellum, group Har (harmine 1 mg/kg s.c.), 95 min after drug, mean (SD)): 4.1 ng/g
- concentration at 95 min ([4]; cerebellum, Brain concentration, Experiment 1, cerebellum, group Har + DMT (1 mg/kg each s.c.), 95 min, mean (SD)): 105 ng/g
- concentration at 65 min ([4]; cerebellum, Brain concentration, Experiment 2, cerebellum, after harmine + DMT (3 mg/kg each)): 7800 nM
- concentration at 65 min ([4]; cerebellum, Brain concentration, Experiment 2, cerebellum, group Har + DMT (3 mg/kg each s.c.), 65 min, mean (SD)): 1470 ng/g
- concentration at 95 min ([4]; cerebellum, Molar concentration, Exp 1, group Har + DMT, cerebellum): 558 nM
- concentration at 65 min ([4]; cerebellum, Molar concentration, Exp 2, group Har + DMT, cerebellum): 7820 nM
- concentration at 95 min ([4]; frontal cortex, 1 mg/kg, Brain concentration, Experiment 1, frontal cortex, group DMT (1 mg/kg s.c.), 95 min, mean (SD)): 14.5 ng/g
- concentration at 95 min ([4]; frontal cortex, 1 mg/kg, Molar concentration, Exp 1, group DMT, front cort): 77.1 nM
- concentration at 95 min ([4]; frontal cortex, Brain concentration, Experiment 1, frontal cortex, after harmine + DMT (1 mg/kg each), 95 min): 800 nM
- concentration at 95 min ([4]; frontal cortex, Brain concentration, Experiment 1, frontal cortex, group Har (harmine 1 mg/kg s.c.), 95 min, mean (SD)): 4.8 ng/g
- concentration at 95 min ([4]; frontal cortex, Brain concentration, Experiment 1, frontal cortex, group Har + DMT (1 mg/kg each s.c.), 95 min, mean (SD)): 150 ng/g
- concentration at 65 min ([4]; frontal cortex, Brain concentration, Experiment 2, frontal cortex, after harmine + DMT (3 mg/kg each), 65 min): ≤ 11300 nM
- concentration at 65 min ([4]; frontal cortex, Brain concentration, Experiment 2, frontal cortex, group Har + DMT (3 mg/kg each s.c.), 65 min, mean (SD)): 2120 ng/g
- concentration at 95 min ([4]; frontal cortex, Molar concentration, Exp 1, group Har + DMT, front cort): 794 nM
- concentration at 65 min ([4]; frontal cortex, Molar concentration, Exp 2, group Har + DMT, front cort): 11300 nM
